Measurements as given in patent US20020012943A1, “ELECTROCHEMICAL PROBES FOR DETECTION OF MOLECULAR INTERACTIONS AND DRUG DISCOVERY” (priority 1997, published 2002).
Where no end group is shown, it is not given here. The star is where a group is joined. Biotin = O=C1N[C@H]2[C@H](CS[C@H]2CCCCC(=O)*)N1

Legend:
MDM2 = MDM2 (Homo sapiens, UniProt Q00987); test: Cyclic voltammetry of electrochemically-labeled peptide binding to an MDM2 coated electrode; settings: electrochemically-labeled peptide plus mediator; described in present tense
Sequence of MDM2 (Q00987 whole entry, species assumed, the tested form may be a part): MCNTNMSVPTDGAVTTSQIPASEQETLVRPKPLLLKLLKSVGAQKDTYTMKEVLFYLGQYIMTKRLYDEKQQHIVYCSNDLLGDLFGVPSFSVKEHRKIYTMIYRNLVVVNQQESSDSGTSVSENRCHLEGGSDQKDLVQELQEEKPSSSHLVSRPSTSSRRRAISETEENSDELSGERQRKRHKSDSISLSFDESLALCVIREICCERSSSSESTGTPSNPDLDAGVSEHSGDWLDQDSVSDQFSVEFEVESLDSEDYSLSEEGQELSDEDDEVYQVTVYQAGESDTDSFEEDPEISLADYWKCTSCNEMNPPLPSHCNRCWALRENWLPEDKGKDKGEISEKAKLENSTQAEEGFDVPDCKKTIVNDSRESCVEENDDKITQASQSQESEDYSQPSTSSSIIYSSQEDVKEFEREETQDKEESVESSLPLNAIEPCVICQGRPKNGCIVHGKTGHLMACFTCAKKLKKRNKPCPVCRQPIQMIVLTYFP
Experimental: (§1) Protein crosslinking to the prepared electrode was then performed as follows. A 50 μL aliquot of a 5 mM solution of 1-(3-dimethylaminopropyl)-3-ethylcarbodiimide was placed on one side of the electrode and dried at room temperature. […] of a 4 mg/mL solution of a fusion protein in phosphate buffered saline (PBS)/0.1% Tween 20 was placed on the surface of the dried electrode previously treated with carbodiimide and incubated at 4° C. overnight to allow crosslinking to proceed. After this incubation, electrodes were washed once with a solution of 100 mM Tris-HCl (pH8.0)/100 mM NaCl for 5 min. and kept in PBS at 4° C. until used.
Cyclic voltammograms were collected using an EG&G PAR 273A potentiostat/galvanostat with a single compartment voltammetric cell equipped with a modified tin-doped indium oxide (ITO) working electrode (area=0.32 cm^2), platinum (Pt)-wire counter electrode and silver/silver chloride (Ag/AgCl) reference electrode (see Johnston et al, 1994, Inorg. Chem. 33: 6388-6390). An example of such a voltammogram is shown in FIG. 7 and was generated under the following conditions. A sample containing 50 mM Ru(NH3)6^3+ and 20 mM Ru(NH3)5^3+-labeled peptide dissolved in buffered aqueous solutions containing 50 mM sodium phosphate buffer (pH 6.8)/700 mM NaCl (having a total sodium ion concentration of 780 mM) was scanned at a rate of 15 mV/s. […]

[1] = biological target: T1, GST-Src SH3 fusion protein (Homo sapiens, UniProt P12931); test: Cyclic voltammetry of electrochemically-labeled peptide binding to a GST-Src SH3 coated electrode; settings: for specific cyclic voltammetry signal at GST-Src SH3 electrode: electrochemically-labeled peptide plus mediator, described in present tense
T1 construct: made in house
Experimental: Tin-doped indium oxide electrodes were purchased (Delta Technologies) as 2 cm^2 square glass slides and prepared for use as follows. The electrode was cleaned by sonication treatment in a laboratory sonicator by sequential treatment in Alkonox, neat isopropyl alcohol, distilled and deionized water (three times), and finally the desired buffer; each sonication treatment having been performed for 10 min. The cleaned electrodes were then immersed in a 5 mM solution of 1,12-dodecadicarboxylic acid and incubated at room temperature for 48-72 hours, followed by rinsing the electrodes with hexane (Analytical grade).
as §1
(§2) Cyclic voltammograms were collected using an EG&G PAR 273A potentiostat/galvanostat with a single compartment voltammetric cell equipped with a modified tin-doped indium oxide (ITO) working electrode (area=0.32 cm^2), platinum (Pt)-wire counter electrode and silver/silver chloride (Ag/AgCl) reference electrode (see Johnston et al, 1994, Inorg. Chem. 33: 6388-6390). An example of such a voltammogram is shown in FIG. 7 and was generated under the following conditions. A sample containing 50 mM Ru(NH3)6^3+ and 20 mM Ru(NH3)5^3+-labeled peptide dissolved in buffered aqueous solutions containing 50 mM sodium phosphate buffer (pH 6.8)/700 mM NaCl (having a total sodium ion concentration of 780 mM) was scanned at a rate of 15 mV/s. After scans with the electrochemically labeled peptide, the electrode was rinsed with the same 50 mM sodium phosphate buffer solution, and then with 50 mM Ru(NH3)6^3+ or an unlabeled peptide solution containing 50 mM Ru(NH3)6^3+. Cyclic voltammograms were obtained with 50 mM Ru(NH3)6^3+ after washing. […] A freshly prepared electrode was used for each experiment and a background scan of buffer alone was collected for each electrode and subtracted from subsequent scans.
The electrochemical analysis apparatus and methods of the invention were used to detect and analyze the specific binding interaction between the Src SH3 domain and a specific binding SH3 peptide as follows. […]

streptavidin = streptavidin (Streptomyces avidinii, UniProt P22629); test: Cyclic voltammetry of electrochemically-labeled peptide binding to a streptavidin coated electrode; settings: electrochemically-labeled peptide plus mediator; described in present tense
Sequence of streptavidin (P22629 25-183): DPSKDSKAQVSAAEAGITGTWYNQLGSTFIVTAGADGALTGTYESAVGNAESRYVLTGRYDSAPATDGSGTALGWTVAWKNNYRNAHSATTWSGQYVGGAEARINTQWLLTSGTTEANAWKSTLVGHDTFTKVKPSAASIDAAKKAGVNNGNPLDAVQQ
Experimental: as §1, §2
Electrodes are prepared by coating with the GST-Src SH3 fusion protein described above or with streptavidin using the procedures described in Example 2. […]

src SH3 domain = biological target: T2, src SH3 domain (Homo sapiens, UniProt P12931); test: Chronoamperometry of SA/B-HRP conjugated surrogate ligand binding to a src SH3 hydrogel electrode; settings: 100 mV
T2 construct: The src SH3 domain was immobilized in a hydrogel as described above in Section A
Experimental: The electrochemical analytic methods and apparati of the invention are used to detect protein:peptide interactions in a complex mixture. A variety of different target molecules and purchased from Polysciences (Warrington, Pa.). The redox polymer poly(1-vinylimidazole), modified with Os bipyridine redox centers (PVI-Os) was synthesized as described by Ohara et al. (1993, Anal. Chem. 65: 3512-3517). Specifically, hydrogels were prepared by mixing together 5 μL of each of the following solutions: a solution of a first member of a biological binding pair, typically comprising a receptor protein or fragment at a concentration of 4-6 mg/mL protein; 10 mg/mL PVI-Os, and 2.5 mg/mL PEGDGE. A 1 μL aliquot of the mixture was then spread on the surface of the glassy carbon electrodes. The hydrogel coated electrodes were cured overnight at room temperature prior to use.
The src SH3 domain was immobilized in a hydrogel as described above in Section A. This electrode was then used for electrochemical detection of surrogate ligand binding using a surrogate ligand prepared as follows.
A complex of streptavidin (SA) (Sigma Chemical Co., St. Louis, Mo.), biotinylated horseradish peroxidase (B-HRP) (Sigma) and biotinylated src SH3 surrogate ligand (His-Gly-Ser-Gly-Ser-Phe-Ser-His-Pro-Gln-Asn-Thr; SEQ ID No. 2) was prepared as follows. […]

[2] = system: Tyrosine aminoacyl tRNA synthetase (tyrRS); test: Chronoamperometry of SA/B-HRP conjugated surrogate ligand binding to, and inhibitor displacement from, a tyrRS hydrogel electrode

Substance | specific cyclic voltammetry signal at GST-Src SH3 electrode [1] | specific cyclic voltammetry signal at streptavidin electrode (streptavidin) | also measured
Biotin-HHSGSGSQTFSDLWKL [p53 peptide] | No specific interaction is detected | No specific interaction is detected | specific cyclic voltammetry signal at MDM2 electrode (MDM2): Specific signals are detected
Gly-His-Gly-Ser-Gly-Arg-Ala-Leu-Pro-Pro-Leu-Pro-Arg-Tyr-NH2 (GHGSGRALPPLPRY-NH2) [NPDF-1] | Specific signals are detected | no specific signal is detected | integrated cyclic voltammetry signal, mediator background subtracted ([1]; GST-Src SH3 coated electrode compared with GST alone, Ru-labeled peptide, hexaamineruthenium(III) mediator, 2 hours incubation): much higher signal
HGSGSFSHPQNT [src SH3 surrogate ligand] | – | – | time at which current reaches plateau (src SH3 domain; 100 μM H2O2, ligand added at t=600 sec (FIG. 8)): 1500 to 2000 s; current upon addition of SA/B-HRP conjugated surrogate ligand (src SH3 domain; 100 μM H2O2, ligand added at t=600 sec to 1 μg/mL SA (FIG. 8)): an increase in current was detected
HGSGSFSHPQNT [streptavidin binding peptide] | no specific signal is detected | Specific signals are detected | –
LYSWPDEQYERPSGSGK [tyrRS surrogate ligand] | – | – | binding rate constant (first order) for the tyrRS-surrogate ligand binding reaction ([2]; from the single-exponential current rise of FIG. 9): 0.0012 s⁻¹; current upon addition of SA/B-HRP conjugated surrogate ligand ([2]; tyrRS hydrogel electrode, conditions as for src SH3 (FIG. 9)): current was detected
